The subject of experiment [1] is tail skin temperature of ovariectomized rats. As to the kind of experiment: OVX-induced thermoregulatory dysfunction telemetry model.
Experimental: (§1) Dosing: All doses were prepared based on mg/kg.
(§2) Animals: Ovariectomized Sprague-Dawley rats (180-220 g) were obtained from a commercial vendor (Taconic, Germantown, N.Y.) and individually housed under 12 hours light/dark cycle in a room maintained at 25° C. Animals were provided with standard rat chow and water ad libitum.
A temperature and physical activity transmitter (PhysioTel TA10TA-F40, Data Sciences International) was implanted subcutaneously in the dorsal scapular region and the tip of the temperature probe was tunneled subcutaneously 2.5 cm beyond the base of the tail. After a 7-day recovery period, TST readings were continuously recorded for the remainder of the study. Tail skin temperature readings were collected from each animal every 5 minutes with values obtained over a 10 second sampling period. The day before test day, an average baseline TST value was calculated for each animal by averaging temperature readings recorded during the 12 hours active (dark) phase. In these studies, animals were dosed approximately 1 hour prior to the onset of dark cycle.
Evaluation of a compound's ability to restore normal lowering of TST in the telemetry model was analyzed using hourly TST values calculated for each animal by averaging the 12 temperature readings obtained every 5 minutes over that recording time. To analyze ΔTST in the telemetry model, a two factors repeated measure ANOVA was performed. The model used for analysis was ΔTST=GRP (group)+HR (hours)+GRP*HR+BASELINE. Thus, the reported least squares means are the expected mean values as if both groups had the same baseline value. Post-hoc tests of hourly GRP*HR samples are t-tests of the difference between groups for each hour. To be conservative, a result was not considered significant unless the p-value was <0.025. All analyses were performed using SAS PROC MIXED (SAS, Carey, N.C.).
The test system of experiment [2] is naloxone-induced flush in morphine-dependent ovariectomized rats. The experiment in a line: Morphine-dependent rat model of hot flush (naloxone-induced flush, MD model).
Experimental: as §1, §2
Morphine-dependent model: Ovariectomized rats were injected once daily for 8-9 days with vehicle to minimize stress responses and then administered compound(s) on test day. On day 4 of dosing, morphine dependence was induced by sc implantation of two slow-release morphine pellets (75 mg/pellet) in the dorsal scapular region. […] Four to six days after implantation, morphine withdrawal was induced with an opioid antagonist (naloxone) that causes a transient increase in TST. […] Rats were mildly sedated with ketamine and a thermistor connected to a MacLab data acquisition system was taped to the base of the tail. Tail skin temperature was then monitored continuously for 35 minutes to establish a baseline temperature. Naloxone was subsequently administered and TST was measured for an additional 35 to 60 minutes (total recording time 70 to 95 minutes).
Statistical analysis: To analyze changes in TST induced by naloxone in morphine-dependent rats, all data were analyzed using a two factor repeated measure ANOVA for “treatment” and “time.” The model was fit to test whether there were significant differences in the responses between treatment groups. Naloxone administration is designated as time zero and data is then analyzed at 5 minute intervals. The first three readings were averaged and used as baseline TST scores. All data were analyzed as ΔTST (TST for each time point-baseline). Multiple comparisons (LSD p-values) among the treatment groups at each time point were used for the analysis. Efficacy of hot flush abatement was determined by evaluating statistical differences at the peak response time of 15 minutes post-nalbxone, when the maximal change in TST is observed. A customized SAS-excel (SAS Institute, Cary, N.C.) application was used applying a four parameter logistic model to determine ED50 values. A logistic dose transformation was performed on ΔTST. Maximum flush (ΔTST at 15 minutes post-naloxone) was used in the analysis and the minimum was locked at zero. […] Statisticians in the Biometrics Department (Wyeth Research, Collegeville, Pa.) developed a customized JMP application.

The term ED50 denotes the dose at which the effect has come halfway, by size or by number of responders.

Structures are written as SMILES.

Turning to `CNCCCN1c2ccccc2CCc2ccccc21` [desipramine], the “changes in TST over time” value in experiment [1] (10 mg/kg sc) was “significantly decreases TST over the entire length of the active phase”. In experiment [2] (1 mg/kg sc, 40 minutes prior to naloxone), the “abatement of naloxone-induced flush, alone” value was “approximately 50%”. In addition, the hot flush abatement in experiment [2] (3 mg/kg desipramine co-administered with 10 mg/kg SRI) is given as 100%. Further, the “abatement of naloxone-induced hot flush” value was determined as 90.4% in experiment [2] (10 mg/kg sc) and 96.7% in experiment [2] (30 mg/kg sc). Moreover, in experiment [2] (co-administered fluoxetine 10 mg/kg sc), the “ED50 value of desipramine in the presence of fluoxetine” value was “did not change”. For the same compound, the “abatement of naloxone-induced flush in combination with atipamezole” value in experiment [2] (desipramine 1 mg/kg with atipamezole 0.3 mg/kg, sc) is reported as “additive effect”. In addition, the “abatement of naloxone-induced hot flush when SRI co-administered” value in experiment [2] (desipramine 10 mg/kg with fluoxetine 10 mg/kg) is “significantly enhanced abatement of naloxone-induced hot flush”. The “reduction of TST compared to vehicle treated rats” value in experiment [2] (low dose, naloxone-induced hot flush) came out at 50%. Further, the “effect on naloxone-induced flush at maximal flush (dose response)” value in experiment [2] (sc, 1 hour prior to naloxone, 15 minutes post-naloxone) was “dose-dependently abates the naloxone-induced flush”.
`COc1ccc(C(CN(C)C)C2(O)CCCCC2)cc1` (stereo not shown) [venlafaxine]: in experiment [1] (15 mg/kg sc), the “changes in TST over time” value is “significantly and transiently decreased TST during the active phase”. For the same compound, the ED50 in experiment [2] (Rattus norvegicus, sc, read-out: ED50 value, abatement of naloxone-induced flush) was determined as 15 mg/kg. Also, in experiment [2] (adrenergic α2 receptor antagonist atipamezole given), the “effect on elevated naloxone-dependent hot flush induced by atipamezole” value is “able to alleviate”.

For the origin of these results see patent US20040152710A1, “Use of norepinephrine reuptake modulators for preventing and treating vasomotor symptoms” (priority 2002, published 2004).
